Like-named read-outs stand apart in the source and are kept apart here.
Experiments:
lambsquarters = experiment: Test B pre-/postemergence herbicide test; type: in vivo, Chenopodium album; conditions: Chenopodium album, 336 h; for pest or weed control at 125 g/ha: 125 g ai/ha; for pest or weed control at 500 g/ha: 500 g ai/ha
How it was run: (§1)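 Formulation: non-phytotoxic solvent mix with surfactant. Timing: preemergence on seed and postemergence on 2–18 cm plants, applied concurrently. Readout after 13–15 d greenhouse: visual 0–100 control rating against controls.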

blackgrass = experiment: Test B postemergence herbicide test; type: in vivo, Alopecurus myosuroides; conditions: Postemergence, scale 0 (no effect) to 100 (complete control)
How it was run: (§2)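 Visual control ratings, 0–100 versus untreated controls, taken after 13 to 15 days in the greenhouse. Blackgrass received a postemergence spray at the 1- to 4-leaf stage (2–18 cm); ducksalad, umbrella sedge and barnyardgrass were flooded-paddy treated at 2 leaves.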

ducksalad = experiment: Test B flooded paddy test; type: in vivo, Heteranthera limosa; conditions: Heteranthera limosa, 336 h, 1000 g ai/ha, visual rating, scale 0 to 100 (0 no effect, 100 complete control), 13 to 15 days, read-out: Ducksalad plant response rating
How it was run: as §2

barnyardgrass [1] = experiment: Test B pre-/postemergence herbicide test; type: in vivo, Echinochloa crus-galli; conditions: Echinochloa crus-galli; for pest or weed control at 500 g/ha: 500 g ai/ha
How it was run: (§3)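 Response was scored visually 13 to 15 days after treatment against untreated greenhouse controls, 0 meaning no effect and 100 complete control. Formulations (solvent mixture plus surfactant) went onto soil after planting, onto foliage of 1- to 4-leaf plants, and onto 2-leaf plants in a flooded paddy set including rice and barnyardgrass.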

[2] = tested on: small flower umbrella sedge; experiment: Test B flooded paddy test; type: in vivo, Cyperus difformis; conditions: Cyperus difformis, 336 h, 1000 g ai/ha, visual rating, scale 0 to 100 (0 no effect, 100 complete control), 13 to 15 days, read-out: Sedge, Umbrella plant response rating
How it was run: as §2

morningglory = experiment: Test B pre-/postemergence herbicide test; type: in vivo, Ipomoea coccinea; conditions: Ipomoea, 336 h; for pest or weed control at 125 g/ha: 125 g ai/ha; for pest or weed control at 500 g/ha: 500 g ai/ha
How it was run: as §3

giant foxtail = experiment: Test B pre-/postemergence herbicide test; type: in vivo, Setaria faberi; conditions: Setaria faberi, 336 h; for pest or weed control at 125 g/ha: 125 g ai/ha; for pest or weed control at 500 g/ha: 500 g ai/ha
How it was run: as §1

large crabgrass = experiment: Test B pre-/postemergence herbicide test; type: in vivo, Digitaria sanguinalis; conditions: Digitaria sanguinalis; for pest or weed control at 500 g/ha: 500 g ai/ha
How it was run: as §1

wheat = experiment: Test B postemergence herbicide test; type: in vivo, Triticum aestivum; conditions: Postemergence, 500 g ai/ha; visual rating after 13 to 15 days, scale 0 (no effect) to 100 (complete control)
How it was run: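 Treated at 2-leaf (paddy) or 1–4-leaf, 2–18 cm (postemergence); greenhouse 13–15 d; visual score vs control, 0 none to 100 complete control; dash = not tested.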

velvetleaf = experiment: Test B pre-/postemergence herbicide test; type: in vivo, Abutilon theophrasti; conditions: Abutilon theophrasti, 336 h; for pest or weed control at 500 g/ha: 500 g ai/ha
How it was run: as §1

Surinam grass = experiment: Test B pre-/postemergence herbicide test; type: in vivo, Urochloa decumbens; conditions: Urochloa decumbens; for pest or weed control at 500 g/ha: 500 g ai/ha
How it was run: as §1

rice = experiment: Test B flooded paddy test; type: in vivo, Oryza sativa; conditions: Oryza sativa, 336 h, 1000 g ai/ha, visual rating, scale 0 to 100 (0 no effect, 100 complete control), 13 to 15 days, read-out: Rice plant response rating
How it was run: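 Scale 0–100: zero equals no visible effect, 100 complete control, judged by eye relative to controls. Timing: 13 to 15 days in greenhouse post-treatment. Growth stage at spraying: two leaves (paddy) or one to four leaves, 2–18 cm (postemergence).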

corn = experiment: Test B pre-/postemergence herbicide test; type: in vivo, Zea mays; conditions: Zea mays
How it was run: as §1

cocklebur = experiment: Test B pre-/postemergence herbicide test; type: in vivo, Xanthium strumarium; conditions: Xanthium strumarium; for pest or weed control at 500 g/ha: 500 g ai/ha
How it was run: as §3

barnyardgrass [3] = experiment: Test B flooded paddy test; type: in vivo, Echinochloa crus-galli; conditions: Echinochloa crus-galli, 336 h, 1000 g ai/ha, visual rating, scale 0 to 100 (0 no effect, 100 complete control), 13 to 15 days, read-out: Barnyardgrass plant response rating
How it was run: as §2

CCn1nc(C(C)(C)C)cc1C(=O)Nc1cccc(C(=O)NCC(F)(F)F)c1 [Compound 43, 3-(1,1-dimethylethyl)-1-ethyl-N-[3-[[(2,2,2-trifluoroethyl)amino]carbonyl]-phenyl]-1H-pyrazole-5-carboxamide]
pest or weed control at 125 g/ha (lambsquarters; post-emergence, Postemergence, scale 0 (no effect) to 100 (complete control), read-out: Lambsquarters plant response rating): 90% | pest or weed control at 500 g/ha (lambsquarters; post-emergence, Postemergence, visual rating after 13 to 15 days, scale 0 (no effect) to 100 (complete control), read-out: Plant response rating, Lambsquarters): 90% | pest or weed control at 500 g/ha (lambsquarters; pre-emergence, Preemergence, scale 0 to 100, read-out: Lambsquarters plant response rating): 100% | pest or weed control at 125 g/ha (lambsquarters; pre-emergence, preemergence, 0 to 100 scale, 0 is no effect, 100 is complete control, read-out: Plant response rating, Lambsquarters): 90% | pest or weed control at 125 g/ha (blackgrass; Alopecurus myosuroides, post-emergence, 336 h, 125 g ai/ha, read-out: Blackgrass plant response rating): 20% | Plant response rating, Blackgrass (blackgrass; 500 g ai/ha, visual rating after 13 to 15 days): 20 | pest or weed control at 1000 g/ha (ducksalad): 70% | pest or weed control at 125 g/ha (barnyardgrass [1]; post-emergence, Postemergence, 125 g ai/ha, scale 0 (no effect) to 100 (complete control), read-out: Barnyardgrass plant response rating): 20% | pest or weed control at 500 g/ha (barnyardgrass [1]; post-emergence, Postemergence, visual rating after 13 to 15 days, scale 0 (no effect) to 100 (complete control), read-out: Plant response rating, Barnyardgrass): 70% | pest or weed control at 500 g/ha (barnyardgrass [1]; pre-emergence, Preemergence, scale 0 to 100, read-out: Barnyardgrass plant response rating): 100% | pest or weed control at 1000 g/ha [2]: 70% | pest or weed control at 125 g/ha (morningglory; post-emergence, Postemergence, scale 0 (no effect) to 100 (complete control), read-out: Morningglory plant response rating): 80% | pest or weed control at 500 g/ha (morningglory; post-emergence, Postemergence, visual rating after 13 to 15 days, scale 0 (no effect) to 100 (complete control), read-out: Plant response rating, Morningglory): 100% | pest or weed control at 500 g/ha (morningglory; pre-emergence, Preemergence, scale 0 to 100, read-out: Morningglory plant response rating): 10% | pest or weed control at 125 g/ha (morningglory; pre-emergence, preemergence, 0 to 100 scale, 0 is no effect, 100 is complete control, read-out: Plant response rating, Morningglory): 0% | pest or weed control at 125 g/ha (giant foxtail; post-emergence, Postemergence, scale 0 (no effect) to 100 (complete control), read-out: Foxtail, Giant plant response rating): 30% | pest or weed control at 500 g/ha (giant foxtail; post-emergence, Postemergence, visual rating after 13 to 15 days, scale 0 (no effect) to 100 (complete control), read-out: Plant response rating, Foxtail, Giant): 50% | pest or weed control at 500 g/ha (giant foxtail; pre-emergence, Preemergence, scale 0 to 100, read-out: Foxtail, Giant plant response rating): 80% | pest or weed control at 125 g/ha (giant foxtail; pre-emergence, preemergence, 0 to 100 scale, 0 is no effect, 100 is complete control, read-out: Plant response rating, Foxtail, Giant): 10% | pest or weed control at 125 g/ha (large crabgrass; post-emergence, Postemergence, 125 g ai/ha, scale 0 (no effect) to 100 (complete control), read-out: Crabgrass, Large plant response rating): 90% | pest or weed control at 500 g/ha (large crabgrass; post-emergence, Postemergence, visual rating after 13 to 15 days, scale 0 (no effect) to 100 (complete control), read-out: Plant response rating, Crabgrass, Large): 90% | pest or weed control at 500 g/ha (large crabgrass; pre-emergence, Preemergence, scale 0 to 100, read-out: Crabgrass, Large plant response rating): 100% | Plant response rating, Wheat (wheat): 30 | pest or weed control at 500 g/ha (velvetleaf; post-emergence, Postemergence, visual rating after 13 to 15 days, scale 0 (no effect) to 100 (complete control), read-out: Plant response rating, Velvetleaf): 90% | pest or weed control at 500 g/ha (velvetleaf; pre-emergence, Preemergence, scale 0 to 100, read-out: Velvetleaf plant response rating): 100% | pest or weed control at 125 g/ha (velvetleaf; pre-emergence, preemergence, 125 g ai/ha, 0 to 100 scale, 0 is no effect, 100 is complete control, read-out: Plant response rating, Velvetleaf): 30% | pest or weed control at 500 g/ha (Surinam grass; post-emergence, Postemergence, visual rating after 13 to 15 days, scale 0 (no effect) to 100 (complete control), read-out: Plant response rating, Surinam Grass): 80% | pest or weed control at 500 g/ha (Surinam grass; pre-emergence, Preemergence, scale 0 to 100, read-out: Surinam Grass plant response rating): 50% | pest or weed control at 125 g/ha (Surinam grass; pre-emergence, preemergence, 125 g ai/ha, 0 to 100 scale, 0 is no effect, 100 is complete control, read-out: Plant response rating, Surinam Grass): 30% | plant injury at 1000 g/ha (rice): 50% | plant injury at 125 g/ha (corn; post-emergence, Postemergence, 125 g ai/ha, scale 0 (no effect) to 100 (complete control), read-out: Corn plant response rating): 20% | Corn plant response rating (crop injury, 0 = no effect, 100 = complete kill) at 500 g/ha (corn; post-emergence, Postemergence, 500 g ai/ha, visual rating after 13 to 15 days, scale 0 (no effect) to 100 (complete control)): 30% | plant injury at 500 g/ha (corn; pre-emergence, Preemergence, 500 g ai/ha, scale 0 to 100, read-out: Corn plant response rating): 10% | pest or weed control at 125 g/ha (cocklebur; post-emergence, Postemergence, 125 g ai/ha, scale 0 (no effect) to 100 (complete control), read-out: Cocklebur plant response rating): 10% | pest or weed control at 500 g/ha (cocklebur; post-emergence, Postemergence, visual rating after 13 to 15 days, scale 0 (no effect) to 100 (complete control), read-out: Plant response rating, Cocklebur): 90% | pest or weed control at 500 g/ha (cocklebur; pre-emergence, Preemergence, scale 0 to 100, read-out: Cocklebur plant response rating): 10% | pest or weed control at 1000 g/ha (barnyardgrass [3]): 80%
